According to patent US6348614B1 (priority 1996, dated 2002):
Where two headings read alike, the source gives them in different places.

Assays:
[1] = system: Phytophthora infestans; type: in vivo; details: potato, 2000 ppm
[2] = system: Erysiphe graminis tritici; test: Powdery mildew in wheat, additional examples (Table 6); type: in vivo; details: 500 ppm, 7 days after inoculation
Procedure: Wheat plants (cv.Shafir) were raised from seed in the greenhouse, 30 plants per 0.2 liter pot. When the first leaf was fully developed plants were sprayed with the test solutions and placed in a 20° C. growth cabinet. Two days after spraying plants were dusted with conidia of E. graminis tritict so that about 100 spores were settled on 1 cm^2 of leaf area (both surfaces). […] Control efficacy was calculated relative to number of colonies developed on the control-inoculated untreated plants.

| Compound | Control Efficacy % ([1]; 3 days after inoculation) [%] | Control Efficacy % ([1]; 4 days after inoculation) [%] | Control Efficacy % ([1]; 6 days after inoculation) [%] | Control Efficacy % ([1]; 8 days after inoculation) [%] | Control efficacy (%) 7d [2] [%] |
| --- | --- | --- | --- | --- | --- |
| CCCCCCCCOC(=O)CC(C)NS(=O)(=O)c1ccccc1 (racemic) [Example 7, DL-N-benzenesulfonyl-3-aminobutyric acid n-octyl ester] | 100 | 100 | 82 | 77 | – |
| CCCCCCCOC(=O)CC(C)NC(=O)c1ccc(C)c(C)c1 (stereo not shown) [compound 45, D,L N-3,4-dimethylbezoyl-3-aminobutyric acid heptyl ester] | – | – | – | – | 71 |
| CCCCC(C)OC(=O)CC(C)NS(=O)(=O)c1ccc(Cl)cc1 (stereo not shown) [compound 50, D,L N-4-chlorobenzensulfonyl-3-aminobutyric acid 1-methylpentyl ester] | – | – | – | – | 92 |
| CCCCCCCCCC(C)OC(=O)CC(C)NC(=O)c1ccc(C)cc1 (stereo not shown) [compound 44, D,L N-4-methylbenzoyl-3-aminobutyric acid 1-methyldecanyl ester] | – | – | – | – | 74 |
| CC(CC(=O)Oc1cc(Cl)cc(Cl)c1)NS(=O)(=O)c1ccccc1 (stereo not shown) [compound 53, D,L N-benzensulfonyl-3-aminobutyric acid 3,5-dichlorophenyl ester] | – | – | – | – | 100 |
| CCCOC(=O)CC(C)NS(=O)(=O)c1ccccc1 (stereo not shown) [compound 41, D,L N— benzenesulfonyl-3-aminobutyric acid propyl ester] | – | – | – | – | 77 |
| CNc1ccccc1C(=O)NC(C)CC(=O)OC (stereo not shown) [compound 47, D,L N-2-methylaminobenzoyl-3-aminobutyric acid methyl ester.] | – | – | – | – | 81 |
| CCCCC(C)OC(=O)CC(C)NC(=O)c1ccc(C)cc1 (stereo not shown) [compound 46, D,L N-4-methylbezoyl-3-aminobutyric acid 1-methylpentyl ester] | – | – | – | – | 69 |
| CC(CC(=O)OCCCl)NC(=O)c1ccccc1 (racemic) [Example 11, DL-N-benzoyl-3-aminobutyric acid 2-chloroethyl ester] | 95 | 92 | 82 | 70 | – |
| CCCCCC(C)OC(=O)CC(C)NC(=O)c1ccc(C)cc1 (stereo not shown) [compound 43, D,L N-4-methylbenzoyl-3-aminobutyric acid 1-methylhexyl ester] | – | – | – | – | 75 |
| CCC(C)OC(=O)CC(C)NS(=O)(=O)c1ccccc1 (stereo not shown) [Example 8, N-benzenesulfonyl-3-aminobutyric acid-sec butyl ester] | 100 | 92 | 87 | 50 | – |
| N-β-methylbenzoyl-1-aminobutyric acid-1-methyl-1-pentyl ester [Example 10] | 100 | 100 | 97 | 87 | – |
| CCCC(C)OC(=O)CC(C)NS(=O)(=O)c1ccccc1 (stereo not shown) [Example 9, N-benzenesulfonyl-3-aminobutyric acid 1-methyl-1-butyl ester] | 99 | 97 | 82 | 62 | – |
| CCCCCCCCOC(=O)CC(C)NC(=O)c1ccc(C)c(C)c1 (stereo not shown) [compound 54, D,L N-3,4-dimethylbenzoyl-3-aminobutyric acid octyl ester] | – | – | – | – | 69 |
| C=CCOC(=O)CC(C)NC(=O)c1ccccc1 (stereo not shown) [compound 42, N-benzoyl-3-aminobutyric acid-2 propenyl ester] | – | – | – | – | 77 |
| CCCCCCCOC(=O)CC(C)NC(=O)c1cc(C)cc(C)c1 (stereo not shown) [compound 13, D,L N-3,5-dimethylbezoyl-3-aminobutyric acid heptyl ester] | – | – | – | – | 72 |
